Molecular target: Neuraminidase (Influenza A virus, UniProt B4URF0)
Assay: Inhibition of Influenza virus neuraminidase A
Set-up: species or system unidentified influenza virus

Chain of Neuraminidase (B4URF0 whole entry): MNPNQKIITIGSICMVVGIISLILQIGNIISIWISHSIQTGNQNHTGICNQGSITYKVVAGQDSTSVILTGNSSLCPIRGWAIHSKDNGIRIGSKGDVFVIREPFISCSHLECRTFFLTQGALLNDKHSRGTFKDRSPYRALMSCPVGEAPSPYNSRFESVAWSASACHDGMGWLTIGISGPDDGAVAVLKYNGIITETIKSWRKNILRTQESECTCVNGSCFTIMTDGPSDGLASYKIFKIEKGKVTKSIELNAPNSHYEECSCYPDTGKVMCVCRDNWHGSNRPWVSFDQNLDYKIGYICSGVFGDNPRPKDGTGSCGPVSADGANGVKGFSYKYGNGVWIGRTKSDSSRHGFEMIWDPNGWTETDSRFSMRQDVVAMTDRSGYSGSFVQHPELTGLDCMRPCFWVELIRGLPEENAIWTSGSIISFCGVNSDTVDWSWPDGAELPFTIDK

CC[C@@H](C)O[C@@H]1C=C(C(=O)O)C[C@H](NC(=N)N)[C@H]1NC(C)=O
IC50 (read-out: IC50): 0.5 µM | IC50 (read-out: pIC50 (converted)): 0.0005 µM

CC(=O)N[C@@H]1[C@@H](N)CC(C(=O)O)=C[C@H]1Oc1ccccc1
IC50 (read-out: IC50): 530 µM | IC50 (read-out: pIC50 (converted)): 0.531 µM

CCC(C)O[C@@H]1C=C(C(=O)O)C[C@H](N)[C@H]1NC(C)=O (stereo partly drawn)
IC50 (read-out: IC50): 10 µM

CCO[C@@H]1C=C(C(=O)O)C[C@H](N)[C@H]1NC(C)=O
IC50 (read-out: IC50): 2000 µM | IC50 (read-out: pIC50 (converted)): 2 µM

CCCCCCC[C@H](CC)O[C@@H]1C=C(C(=O)O)C[C@H](N)[C@H]1NC(C)=O
IC50 (read-out: IC50): 1 µM | IC50 (read-out: pIC50 (converted)): 0.001 µM

CCCO[C@@H]1C=C(C(=O)O)C[C@H](N=C(N)N)[C@H]1NC(C)=O
IC50 (read-out: IC50): 2 µM | IC50 (read-out: pIC50 (converted)): 0.002 µM

CCCCCCCCCCO[C@@H]1C=C(C(=O)O)C[C@H](N)[C@H]1NC(C)=O
IC50 (read-out: IC50): 600 µM | IC50 (read-out: pIC50 (converted)): 0.601 µM

C=CC[C@H](CC)O[C@@H]1C=C(C(=O)O)C[C@H](N)[C@H]1NC(C)=O
IC50 (read-out: IC50): 1 µM | IC50 (read-out: pIC50 (converted)): 0.001 µM

CO[C@@H]1C=C(C(=O)O)C[C@H](N)[C@H]1NC(C)=O
IC50 (read-out: IC50): 3700 µM | IC50 (read-out: pIC50 (converted)): 3.71 µM

CC(=O)N[C@H]1[C@H](O)C=C(C(=O)O)C[C@@H]1N=C(N)N
IC50 (read-out: IC50): 100 µM | IC50 (read-out: pIC50 (converted)): 0.1 µM

CC[C@@H](CCC1CCCCC1)O[C@@H]1C=C(C(=O)O)C[C@H](N)[C@H]1NC(C)=O
IC50 (read-out: IC50): 1 µM | IC50 (read-out: pIC50 (converted)): 0.001 µM

CCC(CC)C(=O)N1C[C@@H](N)[C@@H](C(=O)O)C1
IC50 (read-out: IC50): 22 µM

CCN(CC)C(=O)N1C[C@@H](N)[C@@H](C(=O)O)C1
IC50 (read-out: IC50): 25 µM

CCCN(CCC)C(=O)N1C[C@@H](N)[C@@H](C(=O)O)C1
IC50 (read-out: IC50): 32 µM

CCN(C(=O)N1C[C@@H](N)[C@@H](C(=O)O)C1)C(C)C
IC50 (read-out: IC50): 1.6 µM | IC50 (read-out: pIC50 (converted)): 1.06 µM

CC(C)N(C(=O)N1C[C@@H](N)[C@@H](C(=O)O)C1)C(C)C
IC50 (read-out: IC50): 4 µM

CC(C)N(CCO)C(=O)N1C[C@@H](N)[C@@H](C(=O)O)C1
IC50 (read-out: IC50): 21 µM

CC(C)N(CCCC(=O)O)C(=O)N1C[C@@H](N)[C@@H](C(=O)O)C1
IC50 (read-out: IC50): 19 µM

CC(C)N(CCN)C(=O)N1C[C@@H](N)[C@@H](C(=O)O)C1
IC50 (read-out: IC50): 46 µM

CCN(C(=O)N1C[C@H](C(=O)O)[C@H](NC(=N)N)C1)C(C)C
IC50 (read-out: IC50): 13 µM

CCN(C(=O)N1C[C@H](N)[C@H](C(=O)O)[C@@H]1CNC(C)=O)C(C)C
IC50 (read-out: IC50): 7.5 µM

CCC(=O)NC[C@H]1[C@@H](C(=O)O)[C@@H](N)CN1C(=O)N(CC)C(C)C
IC50 (read-out: IC50): 16 µM

C=CC(=O)NC[C@H]1[C@@H](C(=O)O)[C@@H](N)CN1C(=O)N(CC)C(C)C
IC50 (read-out: IC50): 96 µM

CCN(C(=O)N1C[C@H](N)[C@H](C(=O)O)[C@@H]1CNC(=O)C(F)(F)F)C(C)C
IC50 (read-out: IC50): 0.28 µM

CCN(C(=O)N1C[C@H](N)[C@H](C(=O)O)[C@@H]1CNS(C)(=O)=O)C(C)C
IC50 (read-out: IC50): 130 µM

CCC(CC)NC(=O)[C@@H](NC(C)=O)[C@H]1CC(C(=O)O)C[C@@H]1NC(=N)N (stereo partly drawn)
IC50 (read-out: IC50): 0.06 µM

CCC(CC)NC(=O)[C@H](NC(C)=O)[C@H]1CC(C(=O)O)C[C@@H]1NC(=N)N (stereo partly drawn)
IC50 (read-out: IC50): 25 µM

CCN(CC)C(=O)[C@@H](NC(C)=O)[C@H]1CC(C(=O)O)C[C@@H]1NC(=N)N (stereo partly drawn)
IC50 (read-out: IC50): 0.07 µM | IC50 (read-out: pIC50 (converted)): 0.00701 µM

CCCN(CCC)C(=O)[C@@H](NC(C)=O)[C@H]1CC(C(=O)O)C[C@@H]1NC(=N)N (stereo partly drawn)
IC50 (read-out: IC50): 0.043 µM

CC[C@H](C)O[C@@H]1C=C(C(=O)O)C[C@H](N)[C@H]1NC(C)=O
IC50 (read-out: IC50): 9 µM | IC50 (read-out: pIC50 (converted)): 0.00902 µM

CC[C@H](C)O[C@@H]1C=C(C(=O)O)C[C@H](NC(=N)N)[C@H]1NC(C)=O
IC50 (read-out: IC50): 0.5 µM | IC50 (read-out: pIC50 (converted)): 0.0005 µM

CC(=O)N[C@@H]1[C@@H](N)CC(C(=O)O)=C[C@H]1OC(C)C
IC50 (read-out: IC50): 0.001 µM

CC(=O)N[C@H]1[C@H](OC(C)C)C(C)=C(C(=O)O)C[C@@H]1N
IC50 (read-out: IC50): 2.3 µM

CC(=O)N[C@H]1[C@H](OC(C)C)C(F)=C(C(=O)O)C[C@@H]1N
IC50 (read-out: IC50): 0.003 µM

CC(=O)N[C@@H]1[C@@H](N)[C@H](C)C(C(=O)O)=C[C@H]1OC(C)C
IC50 (read-out: IC50): 1.5 µM

CCCC[C@@H](NC(C)=O)[C@@H]1CC(C(=O)O)C[C@@H]1NC(=N)N (stereo partly drawn)
IC50 (read-out: IC50): 0.013 µM

CCCC[C@@H](NC(C)=O)[C@@H]1CC(C(=O)O)C[C@H]1NC(=N)N (stereo partly drawn)
IC50 (read-out: IC50): 14.6 µM

CCCN(CCC)C(=O)[C@@H](NC(C)=O)[C@H]1C[C@](O)(C(=O)O)C[C@@H]1NC(=N)N
IC50 (read-out: IC50): 4.9 µM

CCCN(CCC)C(=O)[C@@H](NC(C)=O)[C@H]1C[C@@](O)(C(=O)O)C[C@@H]1NC(=N)N
IC50 (read-out: IC50): 2300 µM

CCCCCCCCCO[C@@H]1C=C(C(=O)O)C[C@H](N)[C@H]1NC(C)=O
IC50 (read-out: IC50): 210 µM | IC50 (read-out: pIC50 (converted)): 0.21 µM

CC[C@@H](CC1CCCCC1)O[C@@H]1C=C(C(=O)O)C[C@H](N)[C@H]1NC(C)=O
IC50 (read-out: IC50): 16 µM | IC50 (read-out: pIC50 (converted)): 0.016 µM

CC(C)N(CCCCC(=O)O)C(=O)N1C[C@@H](N)[C@@H](C(=O)O)C1
IC50 (read-out: IC50): 1.3 µM

CC(C)N(CCc1ccccn1)C(=O)N1C[C@@H](N)[C@@H](C(=O)O)C1
IC50 (read-out: IC50): 1.3 µM

CC[C@@H](Cc1ccccc1)O[C@@H]1C=C(C(=O)O)C[C@H](N)[C@H]1NC(C)=O
IC50 (read-out: IC50): 620 µM | IC50 (read-out: pIC50 (converted)): 0.621 µM

CC(C)N(CCCO)C(=O)N1C[C@@H](N)[C@@H](C(=O)O)C1
pIC50: 5.677

CC(C)N(CCCCCO)C(=O)N1C[C@@H](N)[C@@H](C(=O)O)C1
IC50 (read-out: IC50): 2 µM

CC(=O)N[C@@H]1[C@@H](N)CC(C(=O)O)=C[C@H]1OC1CCCCC1
IC50 (read-out: IC50): 60 µM | IC50 (read-out: pIC50 (converted)): 0.0601 µM

CCCO[C@@H]1C=C(C(=O)O)C[C@H](N)[C@H]1NC(C)=O
IC50 (read-out: IC50): 180 µM | IC50 (read-out: pIC50 (converted)): 0.18 µM

CC[C@H](CCc1ccccc1)O[C@@H]1C=C(C(=O)O)C[C@H](N)[C@H]1NC(C)=O
IC50 (read-out: IC50): 12 µM | IC50 (read-out: pIC50 (converted)): 0.012 µM

CC(=O)N[C@@H]1[C@@H](N)CC(C(=O)O)=C[C@H]1OCC(C)C
IC50 (read-out: IC50): 200 µM | IC50 (read-out: pIC50 (converted)): 0.2 µM

CCCCO[C@@H]1C=C(C(=O)O)C[C@H](N)[C@H]1NC(C)=O
IC50 (read-out: IC50): 300 µM | IC50 (read-out: pIC50 (converted)): 0.301 µM

CC(=O)N[C@@H]1[C@@H](N)CC(C(=O)O)=C[C@H]1OCCCc1ccc(-c2ccccc2)cc1
IC50 (read-out: IC50): 90 µM | IC50 (read-out: pIC50 (converted)): 0.0902 µM

CC(=O)N[C@H]1[C@H](O)C=C(C(=O)O)C[C@@H]1N
IC50 (read-out: IC50): 6300 µM

CC[C@@H](CCc1ccccc1)O[C@@H]1C=C(C(=O)O)C[C@H](N)[C@H]1NC(C)=O
IC50 (read-out: IC50): 0.3 µM | IC50 (read-out: pIC50 (converted)): 0.000301 µM

CCCCCCCCO[C@@H]1C=C(C(=O)O)C[C@H](N)[C@H]1NC(C)=O
IC50 (read-out: IC50): 180 µM | IC50 (read-out: pIC50 (converted)): 0.18 µM

CCCCO[C@@H]1C=C(C(=O)O)C[C@H](N=C(N)N)[C@H]1NC(C)=O
IC50 (read-out: IC50): 3 µM | IC50 (read-out: pIC50 (converted)): 0.00301 µM

CCCCCCCO[C@@H]1C=C(C(=O)O)C[C@H](N)[C@H]1NC(C)=O
IC50 (read-out: IC50): 270 µM | IC50 (read-out: pIC50 (converted)): 0.27 µM

CCCCCCO[C@@H]1C=C(C(=O)O)C[C@H](N)[C@H]1NC(C)=O
IC50 (read-out: IC50): 150 µM | IC50 (read-out: pIC50 (converted)): 0.15 µM

CCCCCO[C@@H]1C=C(C(=O)O)C[C@H](N)[C@H]1NC(C)=O
IC50 (read-out: IC50): 200 µM | IC50 (read-out: pIC50 (converted)): 0.2 µM

From ChEMBL document CHEMBL3217730, “Determination of structural requirements of influenza neuraminidase type A inhibitors and binding interaction analysis with the active site of A/H1N1 by 3D-QSAR CoMFA and CoMSIA modeling” (Medchemcomm, 2011)
